Data on four molecules can be found in article PMC4878759 (PLoS ONE, 2016).

For assay [1], the system named is VRAC. Description: VRAC activity by YFP quenching in LN215 cells. The assay is classed as cell-based, human. To be noted: 10 μM. On the procedure: LN215 cells, a human glioma cell line, were stably transfected with YFP-F46L/H148Q/I152L, a halide sensor YFP. After the cells were incubated on 96well black plates (Corning Inc., Corning, NY) for 48 hours, each well of the 96-well plate was washed 3 times in PBS (200 μL/wash), and the wells were filled with 50 μl/well isotonic solution (in mM): 140 NaCl, 5 KCl, 20 HEPES (310 mOsm/kg; pH 7.4 with NaOH). In each well, VRAC expressed on the cells were stimulated with addition of 50 μl of hypotonic solutions (in mM): 5 KCl, 20 HEPES, 90 mannitol (120 mOsm/kg). Test compounds (1 μL) were added to each well in a dose dependent manner. After 5 min, 96-well plates were transferred to a plate reader for fluorescence assay. Each well was assayed individually for VRAC-mediated I^- influx by recording fluorescence continuously (400 ms per point) for 7.6 s. YFP fluorescence was recorded 0.4 s for baseline, then 100 μL of 140 mM I^- solution was added at 0.4 s to see the change in fluorescence. Initial iodide influx rate was determined from the initial slope of fluorescence decrease, by nonlinear regression, following infusion of iodide.

In assay [2] the test system is VRAC. Briefly: Whole-cell patch clamp of hypotonicity-induced VRAC currents in LN215 cells. The assay is classed as cell-based, human. To be noted: 10 μM. An excerpt: Pipettes were pulled from borosilicate glass and had resistances of 3–5 MΩ after fire polishing. […] The liquid junction potential (~2.4 mV) was not corrected. After establishing the whole-cell configuration, whole-cell capacitance and series resistance were compensated with the amplifier circuitry. […] VRAC was activated by exposing LN215 cells to a 25% hypotonic bath solution.
A general note: In patch-clamp work, channel activity is measured electrically.

For another assay, the system named is ANO2. More on the design: method as in PMID 22526416. The settings on record: ref [38]; cited from earlier work.
Another assay relates to ANO1. More on the design: method as in PMID 22526416. The settings on record: ref [38]; cited from earlier work.
The test system of assay [3] is VRAC. More on the design: method as in PMID 24965069, PMID 25163766, PMID 26438191. The settings on record: ref [26]–[28]; cited from earlier work.
A further assay addresses T1, ENaC (Homo sapiens, UniProt P37088+P51168+P51170).
T1 construct: endogenous in cells; host or cells: T84 cells, ENaC induced with 2 mM sodium butyrate for 2 days
T1 sequence (P37088 1-669): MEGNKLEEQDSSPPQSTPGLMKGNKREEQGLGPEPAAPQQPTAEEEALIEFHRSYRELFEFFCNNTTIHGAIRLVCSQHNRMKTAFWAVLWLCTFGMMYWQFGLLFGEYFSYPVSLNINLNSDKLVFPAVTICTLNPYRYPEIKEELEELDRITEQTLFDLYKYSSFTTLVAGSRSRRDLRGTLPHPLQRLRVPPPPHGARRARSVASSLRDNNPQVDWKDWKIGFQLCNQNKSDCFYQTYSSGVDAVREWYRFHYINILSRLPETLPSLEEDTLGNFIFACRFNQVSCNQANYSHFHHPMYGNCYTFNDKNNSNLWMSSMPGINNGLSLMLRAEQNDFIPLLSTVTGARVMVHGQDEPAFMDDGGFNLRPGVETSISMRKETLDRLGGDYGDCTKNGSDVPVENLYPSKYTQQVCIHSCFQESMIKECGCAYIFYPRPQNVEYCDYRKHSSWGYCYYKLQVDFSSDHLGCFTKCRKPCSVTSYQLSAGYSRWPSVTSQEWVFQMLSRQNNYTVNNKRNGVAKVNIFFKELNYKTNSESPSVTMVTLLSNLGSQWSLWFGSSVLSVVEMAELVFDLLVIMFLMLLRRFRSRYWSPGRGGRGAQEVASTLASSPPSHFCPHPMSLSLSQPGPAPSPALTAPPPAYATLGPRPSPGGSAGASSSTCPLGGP
T1 sequence (P51168 1-640): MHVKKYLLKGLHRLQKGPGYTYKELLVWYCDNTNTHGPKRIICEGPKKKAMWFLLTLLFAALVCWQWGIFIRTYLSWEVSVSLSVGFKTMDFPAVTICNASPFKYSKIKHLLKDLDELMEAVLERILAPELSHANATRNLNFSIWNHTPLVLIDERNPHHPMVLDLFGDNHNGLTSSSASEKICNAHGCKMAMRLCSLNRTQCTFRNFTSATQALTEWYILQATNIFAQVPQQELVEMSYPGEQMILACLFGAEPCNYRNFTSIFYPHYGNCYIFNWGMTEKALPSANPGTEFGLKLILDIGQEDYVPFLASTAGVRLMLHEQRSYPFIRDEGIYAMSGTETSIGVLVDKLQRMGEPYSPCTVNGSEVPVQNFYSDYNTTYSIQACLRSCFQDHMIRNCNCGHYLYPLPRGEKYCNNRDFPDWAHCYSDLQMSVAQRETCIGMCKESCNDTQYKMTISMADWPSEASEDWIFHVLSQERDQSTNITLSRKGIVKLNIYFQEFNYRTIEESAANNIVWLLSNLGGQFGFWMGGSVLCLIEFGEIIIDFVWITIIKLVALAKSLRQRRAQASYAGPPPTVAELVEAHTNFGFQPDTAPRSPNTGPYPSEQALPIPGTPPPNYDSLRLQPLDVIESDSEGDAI
T1 sequence (P51170 1-649): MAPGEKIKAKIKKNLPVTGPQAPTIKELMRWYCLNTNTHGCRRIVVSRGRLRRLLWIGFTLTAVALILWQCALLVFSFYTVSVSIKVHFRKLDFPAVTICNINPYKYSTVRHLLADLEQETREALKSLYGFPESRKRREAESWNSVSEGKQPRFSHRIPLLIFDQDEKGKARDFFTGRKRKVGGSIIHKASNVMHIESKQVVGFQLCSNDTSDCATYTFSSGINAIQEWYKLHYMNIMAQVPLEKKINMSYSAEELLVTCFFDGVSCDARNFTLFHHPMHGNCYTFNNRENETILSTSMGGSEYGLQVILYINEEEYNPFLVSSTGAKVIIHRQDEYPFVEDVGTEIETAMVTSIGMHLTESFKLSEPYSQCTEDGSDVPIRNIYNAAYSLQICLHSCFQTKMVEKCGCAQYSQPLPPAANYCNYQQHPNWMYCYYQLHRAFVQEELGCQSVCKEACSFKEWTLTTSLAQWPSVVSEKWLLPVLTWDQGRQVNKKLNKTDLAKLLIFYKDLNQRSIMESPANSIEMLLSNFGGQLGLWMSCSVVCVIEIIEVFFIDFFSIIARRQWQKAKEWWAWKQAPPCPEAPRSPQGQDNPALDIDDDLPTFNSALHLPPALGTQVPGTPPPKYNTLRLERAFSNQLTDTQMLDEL
Briefly: Short circuit current in T84 cells expressing ENaC. To be noted: 100 μM. The format is cell-based. As for the experimental part: Snapwell inserts containing ANO1, ANO2 or CFTR expressing FRT cells, ENaC expressing T-84 cells or the human primary airway epithelial cells were mounted in Ussing chambers (Physiologic Instruments, San Diego, CA). To induce transcriptional ENaC induction, the polarized T84 cells were incubated with 2 mM sodium butyrate for 2 days. To increase the functional expression of ANO1, the human airway epithelial cells were treated with IL-4 (10 ng/mL) for 2 days. For T-84 and the human primary airway epithelial cells, the apical and basolateral bath were filled with HCO3^—buffered solution containing (in mM): 120 NaCl, 5 KCl, 1 MgCl2, 1 CaCl2, 10 D-glucose, 2.5 HEPES, and 25 NaHCO3 (pH 7.4). For FRT cells, the basolateral bath was filled with the HCO3^—buffered solution and the apical bath was filled with a half-Cl^- solution. In the half-Cl^- solution 65 mM NaCl in the HCO3^—buffered solution was replaced by Na-gluconate. […] ATP was applied to the apical bath solution to induce intracellular calcium increase. […] Apical membrane currents were measured with an EVC4000 Multi-Channel V/I Clamp (World Precision Instruments, Sarasota, FL) and PowerLab 4/35 (AD Instruments, Castle Hill, Australia). Data were analyzed using Labchart Pro 7 (AD Instruments). The sampling rate was 4 Hz.
ANO1 was activated by either 10 μM Eact, an ANO1 activator, or 100 μM ATP.

Structures are written as SMILES. Read-outs that look alike come from different tables or passages of the source.

As to `CCCCC1(C2CCCC2)Cc2cc(OCCCC(=O)O)c(Cl)c(Cl)c2C1=O` (centres unmarked) [DCPIB], the “block of VRAC activity” value in the assay on VRAC [1] was “completely blocked”. In addition, the “effect on hypotonicity-induced VRAC currents” value with VRAC [2] is given as “almost completely blocked”.

Turning to `O=C(O)c1cc([N+](=O)[O-])ccc1NCCCc1ccccc1` [NPPB, 5-nitro-2-(3-phenylpropylamino)-benzoic acid], the “inhibition of ANO2” value in the assay on ANO2 is “inhibited”. Further, the “inhibition of ANO1” value with ANO1 is “inhibited”. Moreover, the “block of VRAC activity” value in the assay on VRAC [3] is recorded as “potently blocked”.

On to `N=C(N)NC(=O)c1nc(Cl)c(N)nc1N` [amiloride], for which the “effect on ENaC channel activity” value at ENaC is on record as “fully blocked”.

For `O=C(O)c1cccnc1Nc1cccc(C(F)(F)F)c1` [niflumic acid], the “inhibition of ANO2” value in the assay on ANO2 is “inhibited”. Further, the “inhibition of ANO1” value in the assay on ANO1 is “inhibited”.
